Test results: ChEMBL document CHEMBL3045691, “Evaluation of rat kidney aldose reductase inhibitory activity of some N-acetyl dehydroalanine derivatives” (Med Chem Res, 2011)

Target: Aldo-keto reductase family 1 member B1 (Rattus norvegicus) (UniProt P07943)
Experiment: Inhibition of Rattus norvegicus albino (rat) kidney aldose reductase using D-L-glyceraldehyde as substrate assessed as decrease in NADPH concentration at 3.3 x 10^-6 M after 5 min by spectrophotometric analysis

SMILES	inhibition
C=C(NC(C)=O)C(=O)NCCCCl	19.6%
C=C(NC(C)=O)C(=O)N1CCCCC1	3.4%
C=C(NC(C)=O)C(=O)NCc1ccccc1Cl	7.26%
C=C(NC(C)=O)C(=O)NCc1ccccc1OC	0%
C=C(NC(C)=O)C(=O)NC(C)(C)CC	3.22%
C=C(NC(C)=O)C(=O)NC(C)C	3.77%
C=C(NC(C)=O)C(=O)NCC	13.1%
C=C(NC(C)=O)C(=O)NCCC(C)C	4.13%
C=C(NC(C)=O)C(=O)NCc1ccccc1	2.48%
C=C(NC(C)=O)C(=O)Nc1nnc(CC)s1	4.5%
C=C(NC(C)=O)C(=O)NC(C)CC (stereo not given)	0%
C=C(NC(C)=O)C(=O)NC	9.46%
C=C(NC(C)=O)C(=O)NCCC	4.32%
C=C(NC(C)=O)C(=O)NCc1ccc(Cl)cc1	2.3%
C=C(NC(C)=O)C(=O)N1CCCC1	0%
